Assay results as given in patent US20130150330A1, “DECOQUINATE PRODRUGS” (UNIVERSITY OF KANSAS, priority 2011, published 2013).

Assay: Solubility in water, increasing amounts added to 1 mL deionized water
Format: physicochemical
Settings: decoquinate without the prodrug moiety, comparison
Protocol: Comparatively, decoquinate without the prodrug moiety is practically insoluble in water (<0.05 mg/ml). Improved solubility in water allows administration of the decoquinate prodrug by the intravenous and intramuscular routes. Additionally, water solubility also makes oral administration feasible by improving absorption from the GI tract.

In the case of `CCCCCCCCCCOc1cc2c(O)c(C(=O)OCC)cnc2cc1OCC` [decoquinate, ethyl 6-(decyloxy)-7-ethoxy-4-oxo-1,4-dihydroquinoline-3-carboxylate], the solubility is reported as under 50 µg/mL.
